Biological target: NA of A/Washington/01/2007 A(H3N2), WT (Influenza A virus, UniProt A7UPN3)
Assay: biochemical

CC(=O)N[C@H]1[C@H]([C@H](O)[C@H](O)CO)OC(C(=O)O)=C[C@@H]1N=C(N)N [Zanamivir, zanamivir]
IC50: 1.1 ± 0.1 nM
